Values of other authors in patent US9278076B2, “Chronotherapeutic dosage forms” (Endo Pharmaceuticals Inc., priority 2003, dated 2016).

Conditions: glucocorticoid equivalence chart

Compound | Approximate Equivalent Dose
C[C@]12CCC(=O)C=C1CC[C@@H]1[C@@H]2C(=O)C[C@@]2(C)[C@H]1CC[C@]2(O)C(=O)CO [Cortisone] | 25 mg
C[C@]12CCC(=O)C=C1CC[C@@H]1[C@@H]2[C@@H](O)C[C@@]2(C)[C@H]1CC[C@]2(O)C(=O)CO [Hydrocortisone] | 20 mg
C[C@]12C=CC(=O)C=C1CC[C@@H]1[C@@H]2[C@@H](O)C[C@@]2(C)[C@H]1CC[C@]2(O)C(=O)CO [Prednisolone] | 5 mg
C[C@]12C=CC(=O)C=C1CC[C@H]1[C@@H]3C[C@@H](O)[C@](O)(C(=O)CO)[C@@]3(C)C[C@H](O)[C@@]12F [Triamcinolone] | 4 mg
